Data taken from US20250059205A1, “Heterocyclic Compounds and Methods of Use” (AMGEN INC., priority 2021, published 2025).
pIC50: −log10 of the molar value.

Tests used:
[1] = target: His-tagged KRAS G12D protein (Homo sapiens, UniProt P01116, G12D); test: KRAS G12D TR-FRET Assay; type: binding
[2] = target: GDP-bound KRAS protein (aa 1-169), containing both G12D and C118A amino acid substitutions (Homo sapiens, UniProt P01116, C118A/G12D); test: KRAS G12D Coupled Nucleotide Exchange Assay; type: biochemical; details: 2 h compound pre-incubation
Chain of GDP-bound KRAS protein (aa 1-169), containing both G12D and C118A amino acid substitutions (P01116 1-169 isoform P01116-2 G12D/C118A): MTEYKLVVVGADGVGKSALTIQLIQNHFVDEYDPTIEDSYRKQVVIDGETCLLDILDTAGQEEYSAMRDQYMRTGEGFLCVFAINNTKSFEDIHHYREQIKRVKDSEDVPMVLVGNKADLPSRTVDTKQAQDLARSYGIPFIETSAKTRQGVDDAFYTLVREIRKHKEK
Method: Following compound pre-incubation, purified SOS protein (aa 564-1049) and GTP (Roche 10106399001) were added to the assay wells and incubated for an additional 30 min. […] The assay plates were then read on a PerkinElmer EnVision Multilabel Reader, using AlphaScreen® technology, and data were analyzed using a 4-parameter logistic model to calculate IC50 values.

[3] = tested on: Phosphorylation of ERK1/2 in A-427 cells; test: Phospho-ERK1/2 MSD Assay (A-427 cells); type: cell-based; details: Homo sapiens, A-427, 2 h, 2 h treatment, read-out: p-ERK (A427 cells) IC50
Method: A-427 (ATCC® HTB-53™) cells were cultured in RPMI 1640 Medium (ThermoFisher Scientific 11875093) containing 10% fetal bovine serum (ThermoFisher Scientific 16000044) and 1× penicillin-streptomycin-glutamine (ThermoFisher Scientific 10378016). Sixteen hours prior to compound treatment, A-427 cells were seeded in 96-well cell culture plates at a density of 25,000 cells/well and incubated at 37° C., 5% CO2. A compound dose-response titration was diluted in growth media, added to appropriate wells of a cell culture plate, and then incubated at 37° C., 5% CO2 for 2 h. Following compound treatment, cells were washed with ice-cold Dulbecco's phosphate-buffered saline, no Ca^2+ or Mg^2+ (ThermoFisher Scientific 14190144), and then lysed in RIPA buffer (50 mM Tris-HCl pH 7.5, 1% Igepal, 0.5% sodium deoxycholate, 150 mM NaCl, and 0.5% sodium dodecyl sulfate) containing protease inhibitors (Roche 4693132001) and phosphatase inhibitors (Roche 4906837001). Phosphorylation of ERK1/2 in compound-treated lysates was assayed using Phospho-ERK1/2 Whole Cell Lysate kits (Meso Scale Discovery K151DWD) according to the manufacturer's protocol. Assay plates were read on a Meso Scale Discovery Sector Imager 6000, and data were analyzed using a 4-parameter logistic model to calculate IC50 values.

[4] = tested on: Phosphorylation of ERK1/2 in AsPC-1 cells; test: Phospho-ERK1/2 MSD Assay (AsPC-1 cells); type: cell-based; details: Homo sapiens, ASPC1, 2 h, 2 hours treatment, read-out: p-ERK (AsPC-1 cells) IC50
Summary of the method: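 Read-out: MSD electrochemiluminescent detection of phosphorylated ERK1/2 in whole-cell lysates, fitted to a 4-parameter logistic curve for IC50. Prior to lysis, AsPC-1 cells (25,000 per well) received a 2 h compound dose-response at 37 °C.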

Chain of His-tagged KRAS G12D protein (P01116 1-188 isoform P01116-2 G12D): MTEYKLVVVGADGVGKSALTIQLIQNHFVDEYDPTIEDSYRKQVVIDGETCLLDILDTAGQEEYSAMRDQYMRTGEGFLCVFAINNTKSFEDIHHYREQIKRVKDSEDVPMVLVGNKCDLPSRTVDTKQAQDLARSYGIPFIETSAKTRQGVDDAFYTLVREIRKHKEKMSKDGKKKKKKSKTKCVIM

Row | SMILES | pIC50 [1] | Avg 2 h Coupled Exchange IC50 [2] | pIC50 [3] | pIC50 [4]
1 | Oc1cc(-c2c(F)cc3c(N4C[C@@H]5C[C@H]4CN5)nc(OC[C@@]45CCCN4C[C@H](F)C5)nc3c2F)c2ccccc2c1 [Example 49, 4-(4-((1S,4S)-2,5-diazabicyclo[2.2. 1]heptan-2-yl)-6,8-difluoro-2-(((2R,7aS)-2-fluorotetrahydro-1H-pyrrolizin-7a(5H)-yl)methoxy)quinazolin-7-yl)naphthalen-2-ol] | 7.74 | 9 nM | 6.19 | 5.44
2 | CCc1c(F)ccc2cc(O)cc(-c3cc4nc(OC[C@@]56CCCN5C[C@H](F)C6)nc(N5C[C@H]6CC[C@@H](C5)N6)c4cc3O)c12 [Example 201, 4-((1R,5S)-3,8-diazabicyclo[3.2.1]octan-3-yl)-7-(8-ethyl-7-fluoro-3-hydroxynaphthalen-1-yl)-2-(((2R,7aS)-2-fluorotetrahydro-1H-pyrrolizin-7a(5H)-yl)methoxy) quinazolin-6-ol] | 8.52 | 6 nM | 7.80 | 7.35
3 | CCc1cccc2cccc(-c3cc4nc(OC[C@@]56CCCN5C[C@H](F)C6)nc(N5C[C@H]6CC[C@@H](C5)N6)c4cc3F)c12 [Example 72, 4-((1R,5S)-3,8-diazabicyclo[3.2. 1]octan-3-yl)-7-(8-ethylnaphthalen-1-yl)-6-fluoro-2-(((2R,7aS)-2-fluorotetrahydro-1H-pyrrolizin-7a(5H)-yl)methoxy) quinazoline] | 7.64 | 18 nM | 5.57 | 5.59
4 | CN1C[C@H](F)C[C@H]1COc1nc(N2C[C@H]3C[C@@H](C2)N3)c2ccc(-c3cc(O)cc4ccccc34)c(F)c2n1 [Example 7, 4-(4-((1R,5S)-3,6-diazabicyclo[3.1. 1]heptan-3-yl)-8-fluoro-2-(((2S,4R)-4-fluoro-1-methylpyrrolidin-2-yl)methoxy)quinazolin-7-yl)naphthalen-2-ol] | 7.12 | 35 nM | 5.45 | 5.48
5 | CCc1c(F)ccc2cc(O)cc(-c3ccc4c(N5C[C@H]6CC[C@@H](C5)N6)nc(OCCC(C)(C)O)nc4c3F)c12 [Example 132, 4-(4-((1R,5S)-3,8-diazabicyclo[3.2.1]octan-3-yl)-8-fluoro-2-(3-hydroxy-3-methylbutoxy)quinazolin-7-yl)-5-ethyl-6-fluoronaphthalen-2-ol] | 7.80 | 6 nM | 5.77 | 5.92
6 | Oc1cc(-c2ccc3c(N4[C@@H]5CC[C@H]4CNC5)nc(OC[C@@]45CCCN4C[C@H](F)C5)nc3c2F)c2cccnc2c1 [Example 29, 5-(4-((1R,5S)-3,8-diazabicyclo[3.2. 1]octan-8-yl)-8-fluoro-2-(((2R,7aS)-2-fluorotetrahydro-1H-pyrrolizin-7a(5H)-yl)methoxy)quinazolin-7-yl)quinolin-7-ol] | 6.79 | 80 nM | < 5.00 | 5.00
7 | CCc1c(F)ccc2cc(O)cc(-c3c(F)cc4c(N5[C@@H]6CC[C@H]5CNC6)nc(OC[C@@H]5C[C@@H](F)CN5C)nc4c3F)c12 [Example 158, 4-(4-((1R,5S)-3,8-diazabicyclo[3.2.1]octan-8-yl)-6,8-difluoro-2-(((2S,4R)-4-fluoro-1-methylpyrrolidin-2-yl)methoxy)quinazolin-7-yl)-5-ethyl-6-fluoronaphthalen-2-ol] | 8.15 | 4 nM | 6.64 | 6.29
8 | Oc1cc(-c2c(F)cc3c(N4C[C@H]5C[C@@H](C4)N5)nc(OC[C@@]45CCCN4C[C@H](F)C5)nc3c2F)c2ccccc2c1 [Example 13, 4-(4-((1R,5S)-3,6-diazabicyclo[3.1. 1]heptan-3-yl)-6,8-difluoro-2-(((2R,7aS)-2-fluorotetrahydro-1H-pyrrolizin-7a(5H)-yl)methoxy)quinazolin-7-yl)naphthalen-2-ol] | 8.15 | 6 nM | 6.62 | 5.76
9 | Fc1c(-c2cc(C(F)F)cc3ccccc23)ccc2c(N3C[C@H]4CC[C@@H](C3)N4)nc(OC[C@@]34CCCN3C[C@H](F)C4)nc12 [Example 225, 4-((1R,5S)-3,8-diazabicyclo[3.2.1]octan-3-yl)-7-(3-(difluoromethyl)naphthalen-1-yl)-8-fluoro-2-(((2R,7aS)-2-fluorotetrahydro-1H-pyrrolizin-7a(5H)-yl)methoxy) quinazoline] | 7.24 | 44 nM | 7.10 | 6.59
10 | CCc1c(F)ccc2cccc(-c3ccc4c(N5C[C@H]6CC[C@@H](C5)N6)nc(OC[C@@]56CCCN5C[C@H](F)C6)nc4c3F)c12 [Example 90, 4-((1R,5S)-3,8-diazabicyclo[3.2. 1]octan-3-yl)-7-(8-ethyl-7-fluoronaphthalen-1-yl)-8-fluoro-2-(((2R,7aS)-2-fluorotetrahydro-1H-pyrrolizin-7a(5H)-yl)methoxy) quinazoline] | 8.40 | 3 nM | 6.34 | 6.10
11 | Cc1c(-c2cc(O)cc3ccccc23)ccc2c(N3CC4CCC(C3)N4)nc(OCC34CCCN3C[C@H](F)C4)nc12 (stereo in doubt) [Example 32, 4-(4-((1R,5S)-3,8-diazabicyclo[3.2. 1]octan-3-yl)-2-(((2R,7aS)-2-fluorotetrahydro-1H-pyrrolizin-7a(5H)-yl)methoxy)-8-methylquinazolin-7-yl)naphthalen-2-ol] | 8.30 | 2 nM | 6.47 | 6.15
12 | Oc1cc(Cl)c(C2CC2)c(-c2ccc3c(N4C[C@H]5CC[C@@H](C4)N5)nc(OC[C@@]45CCCN4C[C@H](F)C5)nc3c2F)c1 [Example 145, 3-(4-((1R,5S)-3,8-diazabicyclo[3.2.1]octan-3-yl)-8-fluoro-2-(((2R,7aS)-2-fluorotetrahydro-1H-pyrrolizin-7a(5H)-yl)methoxy)quinazolin-7-yl)-5-chloro-4-cyclopropylphenol] | 8.70 | 3 nM | 7.96 | 7.41
13 | CCc1c(F)ccc2cc(O)cc(-c3c(F)cc4c(N5C[C@H]6CC[C@@H](C5)N6)nc(OC[C@@H]5C[C@@H](F)CN5C)nc4c3F)c12 [Example 89, 4-(4-((1R,5S)-3,8-diazabicyclo[3.2. 1]octan-3-yl)-6,8-difluoro-2-(((2S,4R)-4-fluoro-1-methylpyrrolidin-2-yl)methoxy)quinazolin-7-yl)-5-ethyl-6-fluoronaphthalen-2-ol] | 8.40 | 4 nM | 7.10 | 6.86
14 | CN1CCC[C@H]1CCOc1nc(N2C[C@H]3C[C@@H](C2)N3)c2cc(F)c(-c3cc(O)cc4ccccc34)c(F)c2n1 [Example 21, 4-(4-((1R,5S)-3,6-diazabicyclo[3.1. 1]heptan-3-yl)-6,8-difluoro-2-(2-((S)-1-methylpyrrolidin-2-yl)ethoxy)quinazolin-7-yl)naphthalen-2-ol] | 6.50 | 78 nM | 4.74 | 5.04
15 | C#Cc1cccc2cc(O)cc(-c3c(F)cc4c(N5C[C@@H]6CC[C@H]5CN6)nc(OC[C@@]56CCCN5C[C@H](F)C6)nc4c3F)c12 [Example 180, 4-(4-((1S,4S)-2,5-diazabicyclo[2.2.2]octan-2-yl)-6,8-difluoro-2-(((2R,7aS)-2-fluorotetrahydro-1H-pyrrolizin-7a(5H)-yl)methoxy)quinazolin-7-yl)-5-ethynylnaphthalen-2-ol] | 8.52 | 4 nM | 8.52 | 7.74
16 | Cc1c(-c2cc(O)cc3cccc(Cl)c23)ccc2c(N3C[C@@H]4CC[C@H]3CN4)nc(OC[C@@]34CCCN3C[C@H](F)C4)nc12 [Example 96, 4-(4-((1S,4S)-2,5-diazabicyclo[2.2. 2]octan-2-yl)-2-(((2R,7aS)-2-fluorotetrahydro-1H-pyrrolizin-7a(5H)-yl)methoxy)-8-methylquinazolin-7-yl)-5-chloronaphthalen-2-ol] | 8.15 | 5 nM | 7.02 | 6.67
